The test system of assay [1] is primary human T-cells. Briefly: T-cell proliferation assay (CellTiter-Glo). The format is cell-based. Conditions: CD3 condition; for Emax proliferation (% activation): 5 days, 20 μM reference compound A1 = 100%; for EC50: Homo sapiens, T-cell, 120 h, proliferation after 5 days, CellTiter-Glo, read-out: Tcell Proliferation CD3 EC50. On the technique in general: In ATP-based viability assays light output follows the ATP content of the culture.

The test system of assay [2] is primary human T-cells. Briefly: IL2 secretion measurements in CD3-stimulated T-cells. In kind it is cell-based. Conditions: CD3 condition; for Emax IL2 (% activation): 24 hours, 20 μM reference compound A1 = 100%; for EC50: Homo sapiens, T-cell, IL2 secretion after 24 hours, read-out: Tcell IL2 CD3 EC50. In a few lines:
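Expanded primary human T-cells (100 k/well, RPMI + 5% human serum) on plate-bound anti-CD3 (donor-titrated) or PBS counter-screen wells, 5–6 pt dose response from 20 or 10 μM top (dilution factor 3.333), 0.2% DMSO final. IL-2 in 24 h supernatant by ProQuantum immunoassay or ELISA. Normalised to DMSO (0%) and 20 μM reference A1 (100%); EC50 and Emax from sigmoidal fit.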

In assay [3] the target is DGKalpha (hDGKalpha(1-735)-N-His) (Homo sapiens (Human), UniProt P23743). Briefly: In vitro DGK inhibition assay, ADP-Glo (in house), DGKalpha. The format is biochemical. Conditions: DLG liposomes, 25 μM ATP, 4 nM enzyme, 1 hour reaction. On the procedure: (§1) DGK α and ζ kinases use ATP to phosphorylate the substrate 1,2-dilauroyl-sn-glycerol (DLG, incorporated in the liposomes). ATP is converted to ADP as a result of this enzymatic reaction.
(§2) After the kinase reaction, an ATP-depletion reagent is added to terminate the kinase reaction and deplete any remaining ATP, leaving only ADP. Second, a detection reagent is added to simultaneously convert ADP to ATP and allow the newly synthesized ATP to be converted to light using a coupled luciferase/luciferin reaction.
(§3) Purification of both enzymes was performed as previously described by Takahashi et al., PeerJ, 2018 (Takahashi, D.; Sakane, F. Expression and purification of human diacylglycerol kinase alpha from baculovirus-infected insect cells for structural studies. PeerJ 2018, 6, No. e5449).
(§4) A concentrated liposome solution was prepared in assay buffer without DTT and BSA: 2 mM of DLG in 21 mM of total liposome (2 mM DLG/8 mM PS/11 mM PC). The reaction mixtures contain the assay buffer with a final DLG concentration of 125 uM ATP concentrations of 25 μM (for DGKA assay) or 50 μM (for DGKZ assay). The reactions were started by addition of DGK α and ζ kinases at 4 nM and 2 nM final concentrations, respectively. After 1 hour reaction, the amount of ADP formed was detected with the ADP-Glo kinase assay (Promega) according to the manufacturer instructions. Compounds were added in 11-points dose response, starting at […], 1:3 dilutions, with a final DMSO concentration of 2%. The multidrop combi was used as a liquid handler and luminescence was read with 0.5 s by the envision reader (PE).
On the technique in general: ADP-Glo first removes unused ATP, then detects ADP through luciferase.

The target of assay [4] is DGKzeta (hDGKzeta(1-928)-N-His) (Homo sapiens (Human), UniProt Q13574). Briefly: In vitro DGK inhibition assay, ADP-Glo (in house), DGKzeta. In kind it is biochemical. Conditions: DLG liposomes, 50 μM ATP, 2 nM enzyme, 1 hour reaction. On the procedure: as §1, §2, §3, §4
DGKzeta (hDGKzeta(1-928)-N-His), sequence (Q13574 whole entry): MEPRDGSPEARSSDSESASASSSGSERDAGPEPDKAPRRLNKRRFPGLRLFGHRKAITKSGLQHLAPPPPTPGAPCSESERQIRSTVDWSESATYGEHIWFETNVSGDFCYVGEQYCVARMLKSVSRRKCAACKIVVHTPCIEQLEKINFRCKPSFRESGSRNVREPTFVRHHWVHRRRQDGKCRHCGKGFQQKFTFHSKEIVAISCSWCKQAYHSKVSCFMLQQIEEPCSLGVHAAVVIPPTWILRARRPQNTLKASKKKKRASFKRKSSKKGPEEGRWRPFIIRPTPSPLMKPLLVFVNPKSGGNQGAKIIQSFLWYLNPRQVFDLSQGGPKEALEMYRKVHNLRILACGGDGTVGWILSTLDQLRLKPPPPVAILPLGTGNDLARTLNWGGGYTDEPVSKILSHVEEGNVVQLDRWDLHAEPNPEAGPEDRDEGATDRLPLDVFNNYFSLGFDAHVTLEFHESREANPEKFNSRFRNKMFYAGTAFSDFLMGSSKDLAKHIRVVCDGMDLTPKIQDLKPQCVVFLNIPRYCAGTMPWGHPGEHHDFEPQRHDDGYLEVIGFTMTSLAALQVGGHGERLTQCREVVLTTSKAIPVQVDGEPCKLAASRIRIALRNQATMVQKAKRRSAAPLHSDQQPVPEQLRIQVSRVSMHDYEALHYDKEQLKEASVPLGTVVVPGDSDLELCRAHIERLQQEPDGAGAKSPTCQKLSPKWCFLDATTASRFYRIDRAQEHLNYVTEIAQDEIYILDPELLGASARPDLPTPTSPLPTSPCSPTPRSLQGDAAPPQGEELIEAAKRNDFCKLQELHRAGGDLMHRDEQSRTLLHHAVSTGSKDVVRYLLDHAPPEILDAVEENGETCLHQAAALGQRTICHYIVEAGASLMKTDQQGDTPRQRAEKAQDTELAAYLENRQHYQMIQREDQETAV

DGKalpha (hDGKalpha(1-735)-N-His), sequence (P23743 whole entry): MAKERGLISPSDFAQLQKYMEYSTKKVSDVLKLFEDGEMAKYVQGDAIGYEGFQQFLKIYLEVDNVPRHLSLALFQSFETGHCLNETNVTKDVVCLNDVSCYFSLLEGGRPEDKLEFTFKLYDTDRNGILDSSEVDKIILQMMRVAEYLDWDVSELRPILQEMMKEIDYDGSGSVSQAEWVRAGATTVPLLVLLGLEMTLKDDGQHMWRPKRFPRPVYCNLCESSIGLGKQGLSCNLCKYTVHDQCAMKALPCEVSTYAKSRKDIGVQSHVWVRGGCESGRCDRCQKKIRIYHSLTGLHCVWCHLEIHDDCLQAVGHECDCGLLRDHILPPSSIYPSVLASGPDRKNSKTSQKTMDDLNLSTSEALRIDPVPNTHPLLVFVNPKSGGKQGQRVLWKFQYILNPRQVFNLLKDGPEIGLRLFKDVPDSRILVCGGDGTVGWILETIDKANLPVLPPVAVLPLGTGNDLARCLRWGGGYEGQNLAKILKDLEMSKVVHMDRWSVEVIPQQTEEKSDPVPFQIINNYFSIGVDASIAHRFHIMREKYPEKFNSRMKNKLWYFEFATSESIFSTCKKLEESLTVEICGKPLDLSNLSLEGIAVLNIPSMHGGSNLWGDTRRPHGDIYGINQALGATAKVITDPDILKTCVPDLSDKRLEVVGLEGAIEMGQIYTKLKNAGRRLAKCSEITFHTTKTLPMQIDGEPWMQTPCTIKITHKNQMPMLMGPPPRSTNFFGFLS

What is called IC50 is the concentration needed to halve the response being measured. Low readings indicate greater potency in that assay, high ones weaker potency in that assay. Turning to `COC(=O)N1CC2CC(c3cnnc(-c4cc5c(cc4F)S(=O)(=O)C[C@H](N)C(=O)N5Cc4ccc(Cl)cc4)n3)(C2)C1` [Example 18, methyl 1-[3-[(3R)-3-amino-5-[(4-chlorophenyl)methyl]-8-fluoro-1,1,4-trioxo-2,3-dihydro-1λ6,5-benzothiazepin-7-yl]-1,2,4-triazin-5-yl]-3-azabicyclo[3.1.1]heptane-3-carboxylate], in the assay on primary human T-cells [1], the “Emax proliferation (% activation)” value is on record as 79 % activation and the EC50 amounted to 2720 nM. Besides, in the assay on primary human T-cells [2], the “Emax IL2 (% activation)” value is 61 % activation and the EC50 was determined as 1830 nM. Moreover, the IC50 in assay [3] was 4590 nM. In assay [4], this molecule gave a 50% inhibitory concentration (IC50) of 1130 nM.

Turning to `CS(=O)(=O)C(CCCl)c1cnnc(-c2cc3c(cc2F)S(=O)(=O)C[C@H](N)C(=O)N3Cc2ccc(Cl)cc2)n1` (stereo partly drawn) [Example 20, (3R)-3-amino-7-[5-(3-chloro-1-methylsulfonyl-propyl)-1,2,4-triazin-3-yl]-5-[(4-chlorophenyl)methyl]-8-fluoro-1,1-dioxo-2,3-dihydro-1λ6,5-benzothiazepin-4-one], the “Emax proliferation (% activation)” value in the assay on primary human T-cells [1] amounted to 87 % activation. Besides, the EC50 is 9110 nM in the assay with primary human T-cells [1] and above 10000 nM in the assay on primary human T-cells [2]. Besides, the “Emax IL2 (% activation)” value in the assay on primary human T-cells [2] is 39 % activation. Further, the IC50 was found to be 1660 nM in assay [3] and 1730 nM in assay [4].

Take `COc1ccc(-c2ccc(CN3C(=O)[C@@H](N)CS(=O)(=O)c4cc(F)c(-c5cncc(Cl)c5)cc43)cc2)cc1` [Example 27, (3R)-3-amino-7-(5-chloro-3-pyridyl)-8-fluoro-5-[[4-(4-methoxyphenyl)phenyl]methyl]-1,1-dioxo-2,3-dihydro-1λ6,5-benzothiazepin-4-one]: in the assay on primary human T-cells [1], the “Emax proliferation (% activation)” value was 111 % activation and the EC50 worked out at 308 nM. Also, in the assay with primary human T-cells [2], the “Emax IL2 (% activation)” value is on record as 243 % activation and the EC50 came to 997 nM. Besides, inhibition in assay [3] was half-maximal at 41200 nM (IC50). Half-maximal inhibition in assay [4] (IC50) required 6500 nM.

For `CC(C)(C)c1nncc(-c2cc3c(cc2F)S(=O)(=O)C[C@H](N)C(=O)N3Cc2ccc(-c3noc(C(F)(F)F)n3)cc2)n1` [Example 36, (3R)-3-amino-8-fluoro-1,1-dioxo-7(3R)-3-amino-7-(3-tert-butyl-1,2,4-triazin-5-yl)-8-fluoro-1,1-dioxo-5-[[4-[5-(trifluoromethyl)-1,2,4-oxadiazol-3-yl]phenyl]methyl]-2,3-dihydro-1λ6,5-benzothiazepin-4-one], in the assay with primary human T-cells [1], the “Emax proliferation (% activation)” value is 108 % activation and the EC50 was 1350 nM. Also, in the assay on primary human T-cells [2], the “Emax IL2 (% activation)” value is reported as 88 % activation and the EC50 is 1560 nM. The same molecule returned an IC50 in assay [3] of 24500 nM. Besides, inhibition in assay [4] was half-maximal at 1500 nM (IC50).

Regarding `COc1ccc(-c2ccc(CN3C(=O)[C@@H](N)CS(=O)(=O)c4cc(F)c(-c5cncc(C(C)(C)C)c5)cc43)cc2)cc1` [Example 30, (3R)-3-amino-7-(5-tert-butyl-3-pyridyl)-8-fluoro-5-[[4-(4-methoxyphenyl)phenyl]methyl]-1,1-dioxo-2,3-dihydro-1λ6,5-benzothiazepin-4-one], in the assay with primary human T-cells [1], the “Emax proliferation (% activation)” value worked out at 177 % activation and the EC50 turned out to be 333 nM. In the assay with primary human T-cells [2], the “Emax IL2 (% activation)” value is 100 % activation and the EC50 is 327 nM. This molecule also registered an IC50 in assay [3] of 29100 nM. In assay [4], this molecule had an IC50 of 2600 nM.

In the case of `N[C@H]1CS(=O)(=O)c2cc(F)c(-c3cncc(C(F)(F)F)c3)cc2N(Cc2ccc(-c3noc(C(F)(F)F)n3)cc2)C1=O` [Example 24, (3R)-3-amino-8-fluoro-1,1-diketo-5-[4-[5-(trifluoromethyl)-1,2,4-oxadiazol-3-yl]benzyl]-7-[5-(trifluoromethyl)-3-pyridyl]-2,3-dihydro-1λ6,5-benzothiazepin-4-one], the “Emax proliferation (% activation)” value with primary human T-cells [1] is 141 % activation. Moreover, the results for the EC50 in the assay with primary human T-cells [1] and in the assay with primary human T-cells [2] were 699 nM and 1940 nM, respectively. The “Emax IL2 (% activation)” value with primary human T-cells [2] is reported as 235 % activation. Further, the values for the IC50 in assay [3] and in assay [4] were 55200 nM and 23700 nM, respectively.

For the origin of these results see US20250236617A1, “BICYCLIC TETRAHYDROTHIAZEPINE DERIVATIVES” (Hoffmann-La Roche Inc., priority 2022, published 2025).
